Reference: US20250170072A1, “NOVEL COMPOSITIONS FOR REDUCING METHANE PRODUCTION IN RUMINANT ANIMALS” (FUTUREFEED PTY LTD, priority 2022, published 2025)
Like-named read-outs stand apart in the source and are kept apart here.

How the values were obtained:
[1] = tested on: in vitro fermentation; settings: doses of 0.25, 1 and 1.5% of feed dry matter; cited from earlier work
[2] = at 20 degrees; cited from earlier work
[3] = Bromoform in water; assay type: physicochemical; settings: deionised water
Experimental: Manufactured synthetic CHBr3, 98% purity, and stabilized with 2-methyl-2-butene (Sigma-Aldrich, product no: 241032) was used for the preparation of the four excipients. The Corn Oil, Molasses and Water were made with similar protocols as per the Canola Oil in Example 4. Briefly, CHBr3 was dissolved and homogenised into either retail corn oil, molasses, or deionised water and homogenised by repeated inversion and left to stabilise overnight prior to achieve a concentration of 3.0±0.10 mg/g. Cyclodextrin was prepared as described previously (patent WO 96/14062, PCT AU95/00733). Briefly, CHBr3 was added to α-cyclodextrin (Sigma-Aldrich, product no: 779008) aqueous solution and mixed overnight. The solid was then separated, washed, then dried. The CHBr3 concentration of the dried powder was determined and then diluted with additional α-cyclodextrin to adjust the CHBr3 concentration to 3.0±0.10 mg/g. TGP, CH4, H2 and CO2 production, IVDDM, and VFA were determined using the protocol as described in Example 4.

[4] = tested on: rumen fluid; settings: formulated in DMSO, cited from earlier work

## BrC(Br)Br [bromoform, tribromomethane]
[1]
  methane production: no effect
[2]
  solubility in water: less than 0.1 g bromofrm per 100 g water
[3]
  concentration of bromoform prepared in water: 3.0±0.10 mg bromoform per gram deionised water
[4]; 1 μM
  methane production in in vitro fermentation: does not significantly inhibit
[4]; doses of 5 μM, 10 μM and 25 μM
  methane production in in vitro fermentation: significantly inhibits
